The values below come from BindingDB's records for doi:10.7270/Q2FT8P6X (n/a, 1994).

In this experiment the target is Leukotriene B4 receptor (Cavia porcellus). Kind of experiment: Negative logarithm of affinity for leukotriene B4 (LTB4) receptor on guinea pig lung membranes.

Turning to `CCc1cc(-c2ccc(N(C)C)cc2)c(O)cc1OCCCCCC(C)(C)c1nn[nH]n1`, the Ki stood at 63 nM. The same measure for `CCc1cc(-c2cccc(C(F)(F)F)c2)c(O)cc1OCCCCCC(C)(C)c1nn[nH]n1`: 66 nM.
